The assay addresses T1, KCC2 (Homo sapiens, UniProt Q9H2X9).
T1 construct: expressed in transfected cells; host or cells: HEK293 cells electroporated (Maxcyte STX) with the pcDNA3.1 KCC2 plasmid
T1 sequence (Q9H2X9 1-1139): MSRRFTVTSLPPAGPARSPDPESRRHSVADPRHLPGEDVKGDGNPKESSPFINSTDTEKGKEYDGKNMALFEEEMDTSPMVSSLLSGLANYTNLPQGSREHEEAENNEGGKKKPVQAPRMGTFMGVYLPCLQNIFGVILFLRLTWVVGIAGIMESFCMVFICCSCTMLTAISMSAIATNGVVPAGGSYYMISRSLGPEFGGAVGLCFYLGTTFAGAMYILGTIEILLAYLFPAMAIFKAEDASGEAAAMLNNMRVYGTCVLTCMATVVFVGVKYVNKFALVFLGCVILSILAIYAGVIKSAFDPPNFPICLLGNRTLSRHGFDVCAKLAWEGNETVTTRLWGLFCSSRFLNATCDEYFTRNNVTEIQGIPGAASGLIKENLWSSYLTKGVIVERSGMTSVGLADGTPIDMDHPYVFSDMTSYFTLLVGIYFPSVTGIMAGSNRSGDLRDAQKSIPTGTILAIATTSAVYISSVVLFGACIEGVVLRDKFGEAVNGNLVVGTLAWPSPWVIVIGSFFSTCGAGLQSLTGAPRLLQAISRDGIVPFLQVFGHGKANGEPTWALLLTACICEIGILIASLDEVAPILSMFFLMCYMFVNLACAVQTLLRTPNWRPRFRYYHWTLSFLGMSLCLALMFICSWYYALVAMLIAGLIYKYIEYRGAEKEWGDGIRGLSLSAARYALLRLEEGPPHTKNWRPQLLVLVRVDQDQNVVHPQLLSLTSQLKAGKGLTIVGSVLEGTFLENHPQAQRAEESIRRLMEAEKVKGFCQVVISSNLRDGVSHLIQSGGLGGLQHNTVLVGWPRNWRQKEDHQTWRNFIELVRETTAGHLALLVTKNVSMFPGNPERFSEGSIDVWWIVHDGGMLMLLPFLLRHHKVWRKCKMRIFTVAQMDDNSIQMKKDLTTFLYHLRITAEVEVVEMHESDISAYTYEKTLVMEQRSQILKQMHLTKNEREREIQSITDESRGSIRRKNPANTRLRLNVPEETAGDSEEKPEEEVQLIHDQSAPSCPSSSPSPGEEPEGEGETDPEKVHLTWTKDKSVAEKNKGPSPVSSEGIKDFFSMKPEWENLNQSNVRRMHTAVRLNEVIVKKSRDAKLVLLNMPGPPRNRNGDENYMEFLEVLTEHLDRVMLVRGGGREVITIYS
As to the kind of experiment: KCC2 thallium transport FLIPR-based assay (Tl+ influx in HEK293 cells expressing KCC2). The format is cell-based. The note with it: 90 min compound incubation at RT, thallium flux at 120 s used to determine EC50. The protocol:
A thallium transport FLIPR-based assay was used to measure the ability of compounds to activate KCC2. KCC2 activity is assessed by measuring KCC2-dependent Tl^+ influx in a KCC2-expressing cell. The assay protocol was based on those described by Delpire et al (Proc Natl Acad Sci USA. 2009 Mar. 31; 106(13): 5383-5388) and Zhang et al (Journal of Biomolecular Screening 15(2): 2010).
KCC2 was synthesised and codon optimised by GeneArt based on the Uniprot sequence Q9H2X9. The final sequence was subcloned into pcDNA3.1.
HEK293 cells were grown in 10 layer cell stacks at 37° C., 5% CO2, in DMEM, 10% fetal calf serum and 2 mM Glutamine. The cells were detached by removing the media and washing the cell stack with 100 ml of PBS. The PBS was removed and 100 ml of 1× TrypLE was added and the cell stack returned to 37° C. for 5 min. The detached cells were then counted in a Vi Cell counter and spun for 10 min at 1250 rpm in a Sorval Legend centrifuge. The cells were diluted down in Maxcyte electroporation buffer at 4× the final concentration and spun as before. The cell pellet was resuspended at 1×10^8/cells per ml and electroporated in a Maxcyte Cl 2.2 bag on a Maxcyte STX machine via the HEK293 programme with 200 ug/ml of plasmid DNA. The cells were then allowed to recover for 30 min before adding to 500 ml of PBS and then counted again on the Vi Cell. The cells were then frozen down in planer controlled rate freeze in 90% complete media, 10% DMSO.
All reagents were dispensed using a Mulitdrop Combi unless stated otherwise. All FluXOR Invitrogen propriety buffer compositions are mentioned in tables below.
HEK293 KCC2 cells were harvested at a density of 3.33×10^5 cells/mL in complete media (DMEM, Sigma, D6546, 10% fetal calf serum and 1% Glutamax) and 30 μL per well seeded into 384-well PDL coated black-clear plates (Corning, 354663). Leave cells at RT for 20 mins to settle before incubating for 48 h at 37° C., 5% CO2. Following incubation, perform three wash steps in HBSS (Sigma, H6648) using a Biotek cell washer with the final aspiration leaving 20 μL HBSS residual volume in each well. A further 20 μL per well of thallium loading dye is then added (1 h, RT, protect from light). 5 μL of test compounds (100 μM top concentration, 1:2 dilutions, 12 point curve) were added using the FLIPR TETRA and incubated at RT for 90 min in the dark. Following compound incubation, the thallium flux response is read on FLIPR TETRA (ex. 515-575 nm) which is initiated by FLIRR TETRA dispensing 5 μL stimulus buffer into each well. Recordings are measured every 1 second for 120 seconds. Thallium flux at 120 s used to determine EC50.
Compound buffer: Assay buffer with 1 μL of bumetanide per 10 ml.

Each structure is given as a SMILES string.

Our source for the EC50 values is patent publication US12617795B2, “Substituted 6,7-dihydro-5H-pyrrolo[3,4-d]pyrimidines, 5,7-dihydrofuro[3,4-d]pyrimidines, and pyrido[2,3-d]pyrimidines as KCC2 modulators” (Astrazeneca AB, priority 2020, dated 2026).

As usually defined, the EC50 is the concentration that produces a half-maximal response. `CC(C)N1Cc2c(Nc3ccc(C4CCCCC4)cc3)nc(N3CCCOCC3)nc2C1=O` [Example 24, 4-[(4-cyclohexylphenyl)amino]-2-(1,4-oxazepan-4-yl)-6-(propan-2-yl)-5,6-dihydro-7H-pyrrolo[3,4-d]pyrimidin-7-one] displayed a concentration for a half-maximal effect (EC50) of 2920 nM. For `CC(C)c1ccc(Nc2nc(N3CCOCC3)nc3c2CN(C(C)C)C3=O)cc1` [Example 86, 2-(morpholin-4-yl)-6-(propan-2-yl)-4-{[4-(propan-2-yl)phenyl]amino}-5,6-dihydro-7H-pyrrolo[3,4-d]pyrimidin-7-one], the response was half-maximal at 5830 nM (EC50). For `CC(C)N1Cc2c(Nc3ccc(C4CCCCC4)cc3)nc(N3CCOC(CO)C3)nc2C1=O` (centres unmarked) [Example 31, 4-[(4-cyclohexylphenyl)amino]-2-[2-(hydroxymethyl)morpholin-4-yl]-6-(propan-2-yl)-5,6-dihydro-7H-pyrrolo[3,4-d]pyrimidin-7-one], the EC50 amounted to 4810 nM.

Take `CC(C)N1Cc2c(Nc3ccc(-c4ccc(OCCNC(=O)OC(C)(C)C)cc4)cc3)nc(N3CCOCC3)nc2C1=O` [Example 69, tert-Butyl (2-((4′-((6-isopropyl-2-morpholino-7-oxo-6,7-dihydro-5H-pyrrolo[3,4-d]pyrimidin-4-yl)amino)-[1,1′-biphenyl]-4-yl)oxy)ethyl)carbamate]: the EC50 turned out to be 1560 nM.

On to `CC(C)N1Cc2c(Nc3ccc(C4CCCCC4)cc3)nc(C3=CCOCC3)nc2C1=O` [Example 45, 4-[(4-cyclohexylphenyl)amino]-2-(3,6-dihydro-2H-pyran-4-yl)-6-(propan-2-yl)-5,6-dihydro-7H-pyrrolo[3,4-d]pyrimidin-7-one], for which the EC50 came out at 1150 nM. `CC(C)N1Cc2c(Nc3ccc(-c4ccc(Cl)cc4)cc3)nc(N3CCOCC3)nc2C1=O` [Example 89, 4-[(4′-chloro[1,1′-biphenyl]-4-yl)amino]-2-(morpholin-4-yl)-6-(propan-2-yl)-5,6-dihydro-7H-pyrrolo[3,4-d]pyrimidin-7-one] gave an EC50 of 3510 nM. The compound `CC(=O)Nc1cnc2nc(N3CCO[C@H](C)C3)nc(Nc3ccc(C4CCCCC4)cc3)c2c1` [Example 107, (R)—N-(4-((4-cyclohexylphenyl)amino)-2-(2-methylmorpholino)pyrido[2,3-d]pyrimidin-6-yl)acetamide] returned an EC50 of 6300 nM. With `COc1cnc2nc(N3CCO[C@H](C)C3)nc(Nc3ccc(C4CCCCC4)cc3)c2c1` [Example 106, (R)—N-(4-cyclohexylphenyl)-6-methoxy-2-(2-methylmorpholino) pyrido[2,3-d]pyrimidin-4-amine], the EC50 is 1850 nM. For the compound `CC(C)N1Cc2c(Nc3ccc(-c4ccc(Cl)c(Cl)c4)cc3)nc(N3CCOCC3)nc2C1=O` [Example 85, 4-[(3′,4′-dichloro[1,1′-biphenyl]-4-yl)amino]-2-(morpholin-4-yl)-6-(propan-2-yl)-5,6-dihydro-7H-pyrrolo[3,4-d]pyrimidin-7-one], the EC50 worked out at 8410 nM. Take `CC(C)N1Cc2c(Nc3ccc(C4CCCCC4)cc3)nc(-c3ccncc3)nc2C1=O` [Example 46, 4-[(4-cyclohexylphenyl)amino]-6-(propan-2-yl)-2-(pyridin-4-yl)-5,6-dihydro-7H-pyrrolo[3,4-d]pyrimidin-7-one]: the EC50 is 1290 nM. Under `CCC1CN(c2nc(Nc3ccc(C4CCCCC4)cc3)c3c(n2)C(=O)N(C(C)C)C3)CCO1` (centres unmarked) [Example 21, 4-[(4-cyclohexylphenyl)amino]-2-(2-ethylmorpholin-4-yl)-6-(propan-2-yl)-5,6-dihydro-7H-pyrrolo[3,4-d]pyrimidin-7-one] stands 2640 nM; under `C#CCCCCCOc1ccc(-c2ccc(Nc3nc(N4CCOC(C5CC5)C4)nc4c3CN(C(C)C)C4=O)cc2)cc1` (centres unmarked) [Example 52, 2-(2-cyclopropylmorpholin-4-yl)-4-({4′-[(hept-6-yn-1-yl)oxy][1,1′-biphenyl]-4-yl}amino)-6-(propan-2-yl)-5,6-dihydro-7H-pyrrolo[3,4-d]pyrimidin-7-one], 146 nM; under `CC(C)N1Cc2nc(N3CCOCC3)nc(Nc3ccc(C4CCCCC4)cc3)c2C1` [Example 109, N-(4-cyclohexylphenyl)-6-isopropyl-2-morpholino-6,7-dihydro-5H-pyrrolo[3,4-d]pyrimidin-4-amine], 6340 nM. Regarding `CC(C)N1Cc2c(Nc3ccc(C4CCCCC4)cc3)nc(N3CCO[C@H](C)C3)nc2C1=O` [Example 13, 4-[(4-cyclohexylphenyl)amino]-2-[(2R)-2-methylmorpholin-4-yl]-6-(propan-2-yl)-5,6-dihydro-7H-pyrrolo[3,4-d]pyrimidin-7-one], a half-maximal response (EC50) required 1710 nM. `CC(C)N1Cc2c(Nc3ccc(-c4ccccc4)c(F)c3)nc(C3=CCOCC3)nc2C1=O` [Example 82, 2-(3,6-dihydro-2H-pyran-4-yl)-4-((2-fluoro-[1,1′-biphenyl]-4-yl)amino)-6-isopropyl-5,6-dihydro-7H-pyrrolo[3,4-d]pyrimidin-7-one] had an EC50 of 2290 nM. As for `C#CCOc1ccc(-c2ccc(Nc3nc(N4CCOCC4)nc4c3CN(C(C)C)C4=O)cc2)cc1` [Example 71, 2-(morpholin-4-yl)-6-(propan-2-yl)-4-({4′-[(prop-2-yn-1-yl)oxy][1,1′-biphenyl]-4-yl}amino)-5,6-dihydro-7H-pyrrolo[3,4-d]pyrimidin-7-one], the EC50 was 4130 nM. For the compound `CC(C)N1Cc2c(Nc3ccc(-c4ccccc4)c(F)c3)nc(N3CCOCC3)nc2C1=O` [Example 84, 4-[(2-fluoro[1,1′-biphenyl]-4-yl)amino]-2-(morpholin-4-yl)-6-(propan-2-yl)-5,6-dihydro-7H-pyrrolo[3,4-d]pyrimidin-7-one], a half-maximal effect (EC50) was put at 2090 nM. Compound `CCN(CC)c1nc(Nc2ccc(C3CCCCC3)cc2)c2c(n1)C(=O)N(C(C)C)C2` [Example 34, 4-[(4-cyclohexylphenyl)amino]-2-(diethylamino)-6-(propan-2-yl)-5,6-dihydro-7H-pyrrolo[3,4-d]pyrimidin-7-one] showed an EC50 of 5210 nM. To `CC(C)N1Cc2c(Nc3ccc(OCc4ccccc4)cc3)nc(N3CCO[C@H](C)C3)nc2C1=O` [Example 57, 4-[(4-(benzyloxy)phenyl]amino}-2-[(2R)-2-methylmorpholin-4-yl]-6-(propan-2-yl)-5,6-dihydro-7H-pyrrolo[3,4-d]pyrimidin-7-one] belongs 3600 nM; to `C[C@@H]1CN(c2nc(Nc3ccc(C4CCCCC4)cc3)c3cc(C(N)=O)cnc3n2)CCO1` [Example 104, (R)-4-((4-cyclohexylphenyl)amino)-2-(2-methylmorpholino)pyrido[2,3-d]pyrimidine-6-carboxamide], 1630 nM.
